Data published in patent US12139717B2, “Improving plant regeneration” (KWS SAAT SE & Co. KGaA, priority 2019, dated 2024).
Entries after “also recorded” stand apart in the source; their conditions may differ.

How the values were obtained:
sugar beet leaf explants = assay: Sugar beet callus induction from leaf explants in callus induction medium; format: cell-based; set-up: key to Callus induction effect: −: no callus induction effect; +: modest callus induction effect; ++: strong callus induction effect; details: for callus induction in recalcitrant genotype A (FIG. 3): DMSO control
Procedure: 1. Micropropagated shoots of various proprietary genotypes were used as starting material: Genotypes A and B are recalcitrant to callus induction and plant regeneration. […] Therefore, such calli were never transformable.
Genotype C is less recalcitrant. Shoots were multiplied in MS salts+30 g/l sucrose and 0.25 mg/l benzyladenine (BAP).
2. To induce friable callus, leaf explants were isolated from micropropagated shoots and incubated in callus induction medium (CIM) containing MS salts including 15 g/I sucrose and 2 mg/l BAP at 28° C. for 7 to 8 weeks. […] HP is Hyperphyllin, a small molecule with the chemical formula N-[4-Amino-2-chlorophenyl]-2,4-dichlorobenzamide (CAS #: 42480-64-8).
After incubation period the induction and formation of callus has been analysed. […] There is no significant difference in induction efficiency between these two concentrations.

Arabidopsis thaliana = details: Poretska et al. 2016; cited from earlier work
sugar beet friable calli = assay: Sugar beet shoot induction and plant regeneration from induced calli; format: cell-based; details: calli induced with vs without HP
Procedure: 3. Friable calli of step 2 were harvested from the induction and transferred to the shoot induction medium containing MS salts, 30 g/l sucrose, 1 mg/l GA3 and 1 mg/l Thidiazuron (TDZ). The calli were incubated at 24° C. in the light/dark cycle (16 h/8 h) for 1 to 2 weeks. 4. Regenerated shoots were mounted and cultured in the medium of step 1. The plants are grown at 24° C. in the light/dark cycle (16 h/8 h).

sugar beet callus = assay: Agrobacteria-mediated transformation of HP induced sugar beet callus; format: cell-based; details: recalcitrant genotype; 70s::tDT construct; seven days after infection
Procedure: a. Sugar beet calli were induced as described in steps 1 and 2.
b. Friable calli were mounted in medium containing MS salts, 30 g/l sucrose, 1 mg/l GA3 and 1 mg/l Thidiazuron (TDZ), and kept for 1 week in the dark, 24° C.
c. Agrobacterium AGL-1 harbouring the vector pZFN-nptII-70s::AtGRF5 and pZFN-nptII-70s::tDT was grown in medium (5 g/l tryptone+2.5 g/l yeast extract+1 g/l NaCl+5 g/l mannitol+0.1 g/l MgSO4×7H2O+0.25 g/l KH2PO4+1 g/l glutamic acid, pH 7.0) supplemented with the appropriate antibiotics, at 28° C., for 24 h.
d. Calli were inoculated with Agrobacterium suspension (medium: 440 mg/l CaCl2×2H2O+170 mg/l KH2PO4+1.9 g/l KNO3+180.7 mg/l MgSO4+1.65 g/l NH4NO3+2 mg/l BAP+40 μg/l Acetosyringone+20 g/l sucrose+2 g/l glucose, pH 6.0) at an OD600 of 0.8. The callus tissue and the Agrobacterium were incubated in medium comprising 440 mg/l CaCl2×2H2O, 170 mg/l KH2PO4, 1.9 g/l KNO3, 180.7 mg/l MgSO4, 1.65 g/l NH4NO3, 2 mg/l BAP, 40 μg/l Acetosyringone, 20 g/l sucrose and 2 g/l glucose, at 21° C. for 3 days in the dark.
e. Calli were sub-cultured to medium comprising MS salts, 30 g/l sucrose, 1 mg/l GA3, 1 mg/l TDZ and 500 mg/l Timentin, and incubated in the dark, at 24° C. for 1 week.
f. […]

Structure (SMILES) | callus inducing effect (in words) (sugar beet leaf explants; 30 μM) | Callus induction effect (sugar beet leaf explants; 30 μM dissolved in 2 ml/L DMSO) | Callus induction effect (sugar beet leaf explants; 50 μM dissolved in 2 ml/L DMSO) | leaf formation rate (Arabidopsis thaliana) | callus inducing effect (in words) (sugar beet leaf explants; 50 μM) | callus induction in recalcitrant genotype (FIG. 9) (sugar beet leaf explants; 50 μM as printed in legend, control without HP treatment) | callus inducing effect (in words) (sugar beet leaf explants; 10 μM) | Callus induction effect (sugar beet leaf explants; 10 μM dissolved in 2 ml/L DMSO) | amount of callus tissue induced from leaves (FIG. 5) (sugar beet leaf explants; 30 μM vs control without HP) | callus induction in recalcitrant genotype A (FIG. 3) (sugar beet leaf explants; 30 μM) | callus induction in recalcitrant genotype A (FIG. 3) (sugar beet leaf explants; 50 μM) | callus inducing effect (in words) (sugar beet leaf explants; 100 μM) | Callus induction effect (sugar beet leaf explants; 100 μM dissolved in 2 ml/L DMSO) | Callus induction effect (sugar beet leaf explants; 500 μM dissolved in 2 ml/L DMSO) | Callus induction effect (sugar beet leaf explants; 1 mM dissolved in 2 ml/L DMSO) | callus inducing effect (in words) (sugar beet leaf explants; higher concentration (500 μM, 1 mM)) | callus induction efficiency with vs without HP (FIG. 4) (sugar beet leaf explants; recalcitrant genotypes A and B) | plants regenerated from induced callus (FIG. 6) (sugar beet friable calli) | Agrobacterium infection of HP induced callus (FIG. 7) (sugar beet callus)
O=C(Nc1c(F)cccc1F)c1ccc(Cl)cc1 [HP derivate A1] | worked | + | − | enhance leaf formation rate |  |  |  |  |  |  |  |  |  |  |  |  |  |  | 
O=C(Nc1ccccc1)c1c(F)cccc1Cl [HP derivate A2] | strong callus-inducing effect | ++ | + | enhance leaf formation rate | weak effect | promotes callus induction |  |  |  |  |  |  |  |  |  |  |  |  | 
O=C(Nc1ccccc1)c1ccccc1Cl [HP derivate A3] |  |  |  | enhance leaf formation rate |  |  |  |  |  |  |  |  |  |  |  |  |  |  | 
Nc1ccc(NC(=O)c2ccc(Cl)cc2Cl)c(Cl)c1 [HP, N-[4-Amino-2-chlorophenyl]-2,4-dichlorobenzamide] | strong callus inducing effect | ++ | ++ | enhance leaf formation rate | strong callus inducing effect |  | modest effect | + | much more amount of callus tissue | dramatically promotes callus induction; also recorded: promotes callus formation | promotes callus formation | modest effect | + | − | − | no effect | boosting effect | More plants could be regenerated | can be infected by agrobacteria
